According to the NIST ThermoML archive (doi:10.1016/j.jct.2006.12.004):
± gives the expanded uncertainty stated by the source.

assay: refractive index (Na D-line) (dimensionless); details: 293.1 K; 101.33 kPa; Liquid; Standard Abbe refractometry

Point of comparison: `Cc1ccccc1` [toluene], refractive index 1.4873 ± 0.0007. Against it:
- Cc1cccc(C)c1 [1,3-dimethylbenzene] — higher, 1.4943 ± 0.0007
- O=CN1CCOCC1 [N-formylmorpholine] — lower, 1.484 ± 0.0007
- c1ccccc1 [benzene] — higher, 1.5024 ± 0.0007
- CCCCCCC [heptane] — lower, 1.3882 ± 0.0007
